Test results published in ChEMBL document CHEMBL3886652, “Arlethynyl derivatives” (2016).
pEC50: −log10 of the molar value.

Molecular target: Metabotropic glutamate receptor 5 (Homo sapiens, UniProt P41594)
Assay: Intracellular Ca2+ Mobilization Assay: A monoclonal HEK-293 cell line stably transfected with a cDNA encoding for the human mGlu5a receptor was generated; for the work with mGlu5 Positive Allosteric Modulators (PAMs), a cell line with low receptor expression levels and low constitutive receptor activity was selected to allow the differentiation of agonistic versus PAM activity. Cells were cultured according to standard protocols (Freshney, 2000) in Dulbecco's Modified Eagle Medium with high glucose supplemented with 1 mM glutamine, 10% (vol/vol) heat-inactivated bovine calf serum, Penicillin/Streptomycin, 50 μg/ml hygromycin and 15 μg/ml blasticidin (all cell culture reagents and antibiotics from Invitrogen, Basel, Switzerland). bout 24 hrs before an experiment, 5×10^4 cells/well were seeded in poly-D-lysine coated, black/clear-bottomed 96-well plates. The cells were loaded with 2.5 μM Fluo-4AM in loading buffer (1×HBSS, 20 mM HEPES) for 1 hr at 37 °C. and washed five times with loading buffer. The cells were transferred into a Functional Drug Screening System 7000 (Hamamatsu, Paris, France), and 11 half logarithmic serial dilutions of test compound at 37 °C. were added and the cells were incubated for 10-30 min. with on-line recording of fluorescence. […]
Assay type: cell-based, HEK293

Metabotropic glutamate receptor 5, sequence (P41594 whole entry): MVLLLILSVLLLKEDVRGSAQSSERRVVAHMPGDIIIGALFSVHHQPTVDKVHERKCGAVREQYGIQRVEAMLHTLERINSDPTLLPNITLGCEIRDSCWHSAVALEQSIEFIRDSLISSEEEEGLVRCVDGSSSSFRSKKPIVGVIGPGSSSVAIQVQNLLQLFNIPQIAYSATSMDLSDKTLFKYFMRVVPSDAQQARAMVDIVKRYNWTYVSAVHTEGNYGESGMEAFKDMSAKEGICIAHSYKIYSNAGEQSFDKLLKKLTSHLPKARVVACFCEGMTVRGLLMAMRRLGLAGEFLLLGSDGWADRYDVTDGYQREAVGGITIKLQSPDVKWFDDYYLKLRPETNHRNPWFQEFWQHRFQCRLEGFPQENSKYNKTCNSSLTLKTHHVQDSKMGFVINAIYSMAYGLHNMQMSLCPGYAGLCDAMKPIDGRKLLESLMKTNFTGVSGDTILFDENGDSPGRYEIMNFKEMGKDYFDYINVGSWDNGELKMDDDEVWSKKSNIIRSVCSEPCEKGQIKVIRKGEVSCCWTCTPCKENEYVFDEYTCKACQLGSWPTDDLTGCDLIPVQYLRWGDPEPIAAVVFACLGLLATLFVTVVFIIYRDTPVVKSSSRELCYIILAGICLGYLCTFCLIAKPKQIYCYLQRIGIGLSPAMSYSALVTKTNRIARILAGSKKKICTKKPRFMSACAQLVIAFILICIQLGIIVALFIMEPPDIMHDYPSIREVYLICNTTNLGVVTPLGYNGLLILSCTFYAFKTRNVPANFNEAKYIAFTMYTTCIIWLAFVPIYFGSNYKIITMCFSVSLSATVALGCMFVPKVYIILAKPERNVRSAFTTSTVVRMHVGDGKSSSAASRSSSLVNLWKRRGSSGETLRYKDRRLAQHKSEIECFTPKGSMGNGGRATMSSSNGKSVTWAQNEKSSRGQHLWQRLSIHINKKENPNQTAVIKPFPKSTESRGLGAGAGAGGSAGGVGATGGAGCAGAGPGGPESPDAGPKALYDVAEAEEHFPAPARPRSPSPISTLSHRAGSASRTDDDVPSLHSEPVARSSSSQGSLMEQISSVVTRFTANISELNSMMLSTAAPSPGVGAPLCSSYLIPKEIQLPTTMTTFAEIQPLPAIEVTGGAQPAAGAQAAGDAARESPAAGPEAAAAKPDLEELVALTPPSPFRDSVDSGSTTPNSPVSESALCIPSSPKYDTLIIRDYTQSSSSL

SMILES | pEC50
CCN1C(=O)N(c2ccc(C#Cc3cccnc3)cn2)C2CCCCC21 (configuration not stated) | 7.16
CN1CC(C)(C)CN(c2ccc(C#Cc3ccccc3)cn2)C1=O | 7.48
